Test results: patent US20250059188A1, “ARYLSULPHONAMIDE COMPOUNDS” (Anaxis Pharma Pty Ltd, priority 2021, published 2025)

Tests used:
[1] = biological target: human MLKL (full length) (Homo sapiens (Human), UniProt Q8NB16); test: KINOMEscan binding assay, human MLKL (full length); conditions: equilibrium dissociation constant
How it was run: (§1)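 Competition binding format with qPCR detection. Kinases, either phage-fused from E. coli lysates or HEK-293-derived with a DNA tag, bound ligand-coated beads in the presence of compound (11 points, 3-fold steps, 1% DMSO, top usually 30,000 nM). Kd from nonlinear Hill fitting with slope −1.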

[2] = biological target: human RIPK1 (Homo sapiens (Human), UniProt Q13546); test: KINOMEscan binding assay, human RIPK1; conditions: equilibrium dissociation constant
How it was run: as §1

[3] = biological target: human RIPK3 (Homo sapiens (Human), UniProt Q9Y572); test: KINOMEscan binding assay, human RIPK3; conditions: equilibrium dissociation constant
How it was run: as §1

[4] = test system: U937 human histiocytic leukemia cell line; test: Inhibition of TSQ induced necroptosis in U937 cells (CellTitre-Glo); conditions: Homo sapiens, U-937, TSQ cocktail (TNF, Smac mimetic, Q-VD-OPh), 48 hours, read-out: Inhibition of TSQ-induced necroptosis (IC50 cell-based assay)
How it was run: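 U937 cells (20000/well) treated with compound (10-point, 1:3 from 36 μM, 0.3% DMSO) plus TSQ cocktail (hTNF-Fc 100 ng/ml, Smac mimetic 500 nM, Q-VD-OPh 10 μM), 48 h at 37 °C. Viability by CellTiter-Glo luminescence; IC50 from 4-parameter logistic fit. Counter screen: same cells without TSQ.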

[5] = test system: U937 cells; test: Counter screen: U937 cell viability without TSQ cocktail (off-target effect); design: species or system human; conditions: Homo sapiens, U-937, compound without TSQ cocktail, read-out: Off-target effect (IC50 cell-based assay)
How it was run: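 U937 cells (20,000/well) exposed to compound (10-point 1:3 titration from 36 μM, 0.3% DMSO) without TSQ cocktail for 48 h at 37 °C/5% CO2. Viability read as ATP by CellTiter-Glo luminescence; IC50 from 4-parameter logistic fit.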

Chain of human RIPK1 (Q13546 whole entry): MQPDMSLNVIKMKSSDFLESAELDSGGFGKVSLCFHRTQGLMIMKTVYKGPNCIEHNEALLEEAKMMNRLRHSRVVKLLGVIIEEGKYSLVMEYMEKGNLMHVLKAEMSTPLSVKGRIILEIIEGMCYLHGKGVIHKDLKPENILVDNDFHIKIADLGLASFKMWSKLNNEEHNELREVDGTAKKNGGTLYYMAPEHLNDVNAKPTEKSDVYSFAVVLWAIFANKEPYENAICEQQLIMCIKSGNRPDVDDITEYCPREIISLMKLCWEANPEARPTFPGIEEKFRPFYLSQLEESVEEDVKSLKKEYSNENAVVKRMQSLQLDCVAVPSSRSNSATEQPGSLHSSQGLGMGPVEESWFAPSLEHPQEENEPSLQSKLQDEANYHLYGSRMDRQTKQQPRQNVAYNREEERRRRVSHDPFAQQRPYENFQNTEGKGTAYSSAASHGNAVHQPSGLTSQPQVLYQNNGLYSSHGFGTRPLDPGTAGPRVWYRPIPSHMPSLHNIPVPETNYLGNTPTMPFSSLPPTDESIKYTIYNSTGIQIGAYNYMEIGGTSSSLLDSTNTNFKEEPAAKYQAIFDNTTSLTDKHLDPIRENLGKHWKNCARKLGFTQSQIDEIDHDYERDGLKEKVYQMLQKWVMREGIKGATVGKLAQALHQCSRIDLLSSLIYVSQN
Chain of human MLKL (full length) (Q8NB16 whole entry, the tested form may be a part): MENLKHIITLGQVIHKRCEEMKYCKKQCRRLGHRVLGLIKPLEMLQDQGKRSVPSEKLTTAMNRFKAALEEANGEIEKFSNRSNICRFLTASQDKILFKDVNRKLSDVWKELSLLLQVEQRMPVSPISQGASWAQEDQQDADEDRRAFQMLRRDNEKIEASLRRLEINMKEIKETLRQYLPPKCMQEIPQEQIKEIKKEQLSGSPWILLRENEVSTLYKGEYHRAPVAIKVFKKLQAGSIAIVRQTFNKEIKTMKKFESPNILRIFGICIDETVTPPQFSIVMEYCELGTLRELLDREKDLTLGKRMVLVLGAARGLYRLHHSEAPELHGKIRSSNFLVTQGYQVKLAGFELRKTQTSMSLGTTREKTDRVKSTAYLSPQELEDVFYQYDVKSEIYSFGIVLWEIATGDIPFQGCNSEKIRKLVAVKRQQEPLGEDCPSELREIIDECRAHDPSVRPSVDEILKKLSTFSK
Chain of human RIPK3 (Q9Y572 whole entry): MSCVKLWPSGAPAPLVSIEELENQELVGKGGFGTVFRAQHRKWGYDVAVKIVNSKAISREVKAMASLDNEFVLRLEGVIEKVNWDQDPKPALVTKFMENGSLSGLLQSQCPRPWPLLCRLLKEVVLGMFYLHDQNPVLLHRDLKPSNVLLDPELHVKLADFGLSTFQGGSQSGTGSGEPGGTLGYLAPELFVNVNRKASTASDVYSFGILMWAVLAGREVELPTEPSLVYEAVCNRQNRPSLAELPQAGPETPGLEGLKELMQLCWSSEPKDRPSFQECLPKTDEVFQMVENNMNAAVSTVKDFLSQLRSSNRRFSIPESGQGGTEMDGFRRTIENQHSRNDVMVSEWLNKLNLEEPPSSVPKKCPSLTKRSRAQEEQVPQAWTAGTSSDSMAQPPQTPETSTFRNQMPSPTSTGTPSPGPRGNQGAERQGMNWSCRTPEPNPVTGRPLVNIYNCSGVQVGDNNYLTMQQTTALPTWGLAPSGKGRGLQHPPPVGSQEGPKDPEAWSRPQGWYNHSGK

Row | Compound | Kd [1] | Kd [2] | Kd [3] | IC50 [4] | IC50 [5]
1 | Cc1c(-c2cnc(N)c3c(-c4ccc(NS(=O)(=O)C(F)F)c(O[C@@H](C)c5ccc(F)cc5)c4)nn(C)c23)cnn1C1CCN(C)C(C)(C)C1 (stereo partly drawn) [Compound 157, N-(4-(4-amino-1-methyl-7-(5-methyl-1-(1,2,2-trimethylpiperidin-4-yl)-1H-pyrazol-4-yl)-1H-pyrazolo[4,3-c]pyridin-3-yl)-2-((S)-1-(4-fluorophenyl)ethoxy)phenyl)-1,1-difluoromethanesulfonamide] | 0.001 to 0.1 µM | > 10 µM | > 10 µM | 0.01 to 1 µM | > 10 µM
2 | C[C@H](Oc1cc(-c2nn(C)c3c(-c4cnn(C5C[C@H]6CNC[C@H]6C5)c4)cnc(N)c23)ccc1NS(=O)(=O)C(F)F)c1ccc(F)cc1 (stereo partly drawn) [Compound 163, N-(4-(4-amino-1-methyl-7-(1-((3aR,6aS)-octahydrocyclopenta[c]pyrrol-5-yl)-1H-pyrazol-4-yl)-1H-pyrazolo[4,3-c]pyridin-3-yl)-2-((S)-1-(4-fluorophenyl)ethoxy)phenyl)-1,1-difluoromethanesulfonamide] | < 0.001 µM | > 10 µM | > 10 µM | 0.01 to 1 µM | > 10 µM
3 | C[C@H](Oc1cc(-c2nn(C)c3c(-c4cnn(C5C[C@@H]6CN(C)C[C@@H]6C5)c4)cnc(N)c23)ccc1NS(=O)(=O)C(F)F)c1ccc(F)cc1 (stereo partly drawn) [Compound 164, N-(4-(4-amino-1-methyl-7-(1-((3aR,6aS)-2-methyloctahydrocyclopenta[c]pyrrol-5-yl)-1H-pyrazol-4-yl)-1H-pyrazolo[4,3-c]pyridin-3-yl)-2-((S)-1-(4-fluorophenyl)ethoxy)phenyl)-1,1-difluoromethanesulfonamide] | < 0.001 µM | > 10 µM | > 10 µM | < 0.01 µM | > 10 µM
4 | C[C@H](Oc1cc(-c2nn(C)c3c(-c4ccc5c(cnn5C)c4)cnc(N)c23)ccc1NS(=O)(=O)C(F)F)c1ccc(F)cc1 [Compound 166, (S)-N-(4-(4-amino-1-methyl-7-(1-methyl-1H-indazol-5-yl)-1H-pyrazolo[4,3-c]pyridin-3-yl)-2-(1-(4-fluorophenyl)ethoxy)phenyl)-1,1-difluoromethanesulfonamide] | 0.001 to 0.1 µM | > 10 µM | > 10 µM | 0.01 to 1 µM | > 10 µM
5 | CC1CN(C)CC(C)C1n1cc(-c2cnc(N)c3c(-c4ccc(NS(=O)(=O)C(F)F)c(O[C@@H](C)c5ccc(F)cc5)c4)nn(C)c23)cn1 (stereo partly drawn) [Compound 172, N-(4-{4-amino-1-methyl-7-[1-(1,3,5-trimethylpiperidin-4-yl)-1H-pyrazol-4-yl]-1H-pyrazolo[4,3-c]pyridin-3-yl}-2-[(1S)-1-(4-fluorophenyl)ethoxy]phenyl)-1,1-difluoromethanesulfonamide] | 0.001 to 0.1 µM | > 10 µM | > 10 µM | 0.01 to 1 µM | > 10 µM

Second part, led by results:

Row | Kd [1] | Kd [2] | Kd [3] | Compound | IC50 [4] | IC50 [5]
6 | < 0.001 µM | > 10 µM | > 10 µM | C[C@H](Oc1cc(-c2nn(C)c3c(-c4cnn(C5CCN(C)C(C)(C)C5)c4)cnc(N)c23)ccc1NS(=O)(=O)C(F)F)c1ccc(Cl)cc1 (stereo partly drawn) [Compound 159, N-(4-(4-amino-1-methyl-7-(1-(1,2,2-trimethylpiperidin-4-yl)-1H-pyrazol-4-yl)-1H-pyrazolo[4,3-c]pyridin-3-yl)-2-((S)-1-(4-chlorophenyl)ethoxy)phenyl)-1,1-difluoromethanesulfonamide] | < 0.01 µM | > 10 µM
7 | < 0.001 µM | > 10 µM | > 10 µM | C[C@H](Oc1cc(-c2nn(C)c3c(-c4cnn(C5CC(C)(C)N(C)C(C)(C)C5)c4)cnc(N)c23)ccc1NS(=O)(=O)C(F)F)c1ccc(F)cc1 [Compound 162, (S)-N-(4-(4-amino-1-methyl-7-(1-(1,2,2,6,6-pentamethylpiperidin-4-yl)-1H-pyrazol-4-yl)-1H-pyrazolo[4,3-c]pyridin-3-yl)-2-(1-(4-fluorophenyl)ethoxy)phenyl)-1,1-difluoromethanesulfonamide] | < 0.01 µM | > 10 µM
8 | 0.001 to 0.1 µM | > 10 µM | > 10 µM | C[C@H](Oc1cc(-c2nn(C)c3c(-c4cnn(C5CCN(CC(F)(F)F)C(C)(C)C5)c4)cnc(N)c23)ccc1NS(=O)(=O)C(F)F)c1ccc(F)cc1 (stereo partly drawn) [Compound 167, N-(4-(4-amino-7-(1-(2,2-dimethyl-1-(2,2,2-trifluoroethyl)piperidin-4-yl)-1H-pyrazol-4-yl)-1-methyl-1H-pyrazolo[4,3-c]pyridin-3-yl)-2-((S)-1-(4-fluorophenyl)ethoxy)phenyl)-1,1-difluoromethanesulfonamide] | 0.01 to 1 µM | 1 to 10 µM
